The values below come from ChEMBL document CHEMBL4354784, “On the road to structure-based development of anti-virulence therapeutics targeting the type III secretion system injectisome” (Medchemcomm, 2019).

The subject of experiment [1] is Pseudomonas aeruginosa. The experiment can be described thus: Antimicrobial activity against Pseudomonas aeruginosa. The experiment is classed as functional, organism-based.
Experiment [2] deals with Pseudomonas aeruginosa. The experiment can be described thus: Antimicrobial activity against Pseudomonas aeruginosa infected in mouse assessed as increasing survival rate after 6 days (RVB = 20%). The experiment is classed as functional.
In another experiment the test system is Salmonella enterica. Briefly: Antimicrobial activity against Salmonella enterica infected in mouse assessed as increasing survival rate on day 9 relative to control. It is filed as functional.
Experiment [3] concerns Yersinia pseudotuberculosis. The experiment can be described thus: Inhibition of Yersinia pseudotuberculosis serotype 3 T3SS assessed as reduction in YopD protein secretion at > 13 uM preincubated for 1 hr at 26 degC and subsequently incubated for 3 hrs at 37 degC by Western blot analysis relative to control. In general terms: Immunoblotting shows a protein as a band on a membrane.

Experiment [4] is described as follows: Inhibition of Yersinia pseudotuberculosis serotype 3 T3SS assessed as reduction in YopH protein secretion using p-nitro phenyl phosphat/2-(N-morpholino)ethanesulfonic acid as substrate preincubated for 1 hr at 26 degC and subsequently incubated for 2 hrs at 37 degC followed by addition of substrate and measured after 15 mins.
In experiment [5] the test system is Yersinia pseudotuberculosis. The experiment can be described thus: Inhibition of Yersinia pseudotuberculosis serotype 3 T3SS assessed as reduction in YopD protein expression at > 13 uM preincubated for 1 hr at 26 degC and subsequently incubated for 3 hrs at 37 degC by Western blot analysis relative to control.
Experiment [6] can be described thus: Inhibition of Pseudomonas aeruginosa MDM1912 T3SS assessed as reduction in ExoS-BLA fusion protein secretion by measuring hydrolysis of the chromogenic beta-lactamase substrate nitrocefin by colorimetric method.

In the experiment with Pseudomonas aeruginosa [1], `NCCCNCCCCNCCCNC(=O)c1ccccc1C1=c2cc3c4c(c2Oc2c1cc1c5c2CCCN5CCC1)CCC[N+]=4CCC3` gave an EC50 of 10 µM and an MIC50 greater than 10 µM. Moreover, the Survival in the experiment on Pseudomonas aeruginosa [2] turned out to be 100%.

For `Cc1ccc(C(C)C)c(O)c1` [THYMOL], the Survival in the experiment on Salmonella enterica came to 70%.

`Oc1ccc([C@@H]2c3c(O)cc(O)cc3[C@@H]3c4c(cc(O)cc4[C@H]2[C@@H]2c4cc(O)cc5c4[C@@H](c4cc(O)cc(O)c4[C@H]2c2ccc(O)cc2)[C@H](c2ccc(O)cc2)O5)O[C@H]3c2ccc(O)cc2)cc1`: the inhibition in experiment [3] and in experiment [5] was 100% in each case. Further, the IC50 in experiment [4] was greater than 10 µM.

On to `O=C(N/N=C/c1cc(Br)cc(Br)c1O)c1ccc([N+](=O)[O-])cc1`, for which the IC50 in experiment [6] came to 800 nM.

By EC50 is commonly meant the concentration that produces a half-maximal response. High values mean lower potency in that assay, low ones higher potency in that assay. For orientation: MIC50 means the lowest concentration that inhibits either 50% of growth or 50% of the strains tested, depending on the study. Read a low MIC50 as higher susceptibility. Broadly, the inhibition is the percentage by which the read-out fell short of the control. What is called IC50 is the point on the concentration scale where inhibition reaches its midpoint.
